Our source for the pest or weed control values is patent US20180002288A1, “USE OF PICOLINAMIDES AS FUNGICIDES” (DOW AGROSCIENCES LLC, priority 2014, published 2018).

Read-outs that look alike come from different tables or passages of the source.

One assay has as its system Zymoseptoria tritici. Kind of assay: Leaf Blotch of Wheat fungicidal activity (SEPTTR). The format is in vivo. The following applies: for pest or weed control at 121.5 g/ha: Low Volume Cereal Activity at 121.5 g/Ha; for pest or weed control at 100 ppm: wheat, high volume.
The subject of a further assay is Puccinia triticina. Kind of assay: Wheat Brown Rust fungicidal activity (PUCCRT). Type of assay: in vivo. The conditions noted are these: for pest or weed control at 121.5 g/ha: Low Volume Cereal Activity at 121.5 g/Ha; for pest or weed control at 100 ppm: wheat, high volume.
The next assay concerns Phakopsora pachyrhizi. Kind of assay: Asian Soybean Rust fungicidal activity (PHAKPA). The conditions noted are these: Phakopsora pachyrhizi, in Glycine max.
Where [1] appears, read: 24 h, 1 Day Protectant, read-out: SEPTTR 1DP (Wheat Leaf Blotch, 1 Day Protectant).
[2] abbreviates: 72 h, 3 Day Curative, read-out: SEPTTR 3DC (Wheat Leaf Blotch, 3 Day Curative).
[3] abbreviates: 24 h, 1 Day Protectant, read-out: PUCCRT 1DP (Wheat Brown Rust, 1 Day Protectant).
The mark [4] stands for this setting: 72 h, 3 Day Curative, read-out: PUCCRT 3DC (Wheat Brown Rust, 3 Day Curative).
[5] abbreviates: 24 h, read-out: PHAKPA 1DP % Control rating, soybean, high volume, 25 ppm, 1 Day Protectant.
Setting [6] is: 72 h, read-out: PHAKPA 3DC % Control rating, soybean, high volume, 25 ppm, 3 Day Curative.
[7] abbreviates: 24 h, 1 Day Protectant, read-out: SEPTTR 1DP % Control rating.
Setting [8] is: 72 h, 3 Day Curative, read-out: SEPTTR 3DC % Control rating.
The mark [9] stands for this setting: 24 h, 1 Day Protectant, read-out: PUCCRT 1DP % Control rating.
Setting [10] is: 72 h, 3 Day Curative, read-out: PUCCRT 3DC % Control rating.

Turning to `COc1cc(C)ccc1[C@@H](Oc1ccc(C)cc1)[C@H](C)OC(=O)[C@H](C)NC(=O)c1nccc(OC)c1OC(C)=O` [Example 274], the pest or weed control at 121.5 g/ha in the assay with Zymoseptoria tritici (setting [1]) is above 80%; in the assay with Zymoseptoria tritici (setting [2]), above 80%; in the assay on Puccinia triticina (setting [3]) it was above 80%; with Puccinia triticina (setting [4]) it was below 80%. Besides, the pest or weed control at 25 ppm with Phakopsora pachyrhizi (setting [5]) was below 80%; in the assay with Phakopsora pachyrhizi (setting [6]) it was below 0%.

On to `COc1ccnc(C(=O)N[C@@H](C)C(=O)O[C@@H](C)[C@@H](OC)c2ccccc2)c1OCOC(C)=O` [Example 230], for which the pest or weed control at 121.5 g/ha with Zymoseptoria tritici (setting [1]) was below 0%; with Zymoseptoria tritici (setting [2]), above 80%; with Puccinia triticina (setting [3]), above 80%; with Puccinia triticina (setting [4]), above 80%. In addition, the pest or weed control at 25 ppm with Phakopsora pachyrhizi (setting [5]) and with Phakopsora pachyrhizi (setting [6]) was below 80% in each case.

In the case of `COc1cc(F)ccc1[C@@H](OC1CC1)[C@H](C)OC(=O)[C@H](C)NC(=O)c1nccc(OC)c1OC(C)=O` [Example 299], the pest or weed control at 121.5 g/ha with Zymoseptoria tritici (setting [1]) is above 80%; with Zymoseptoria tritici (setting [2]) it was above 80%; with Puccinia triticina (setting [3]), above 80%; with Puccinia triticina (setting [4]), below 80%. In addition, the pest or weed control at 25 ppm in the assay on Phakopsora pachyrhizi (setting [5]) was above 80%; in the assay with Phakopsora pachyrhizi (setting [6]) it was below 80%.

For `COc1cc(F)ccc1[C@@H](Oc1ccc(C)cc1)[C@H](C)OC(=O)[C@H](C)NC(=O)c1nccc(OC)c1OC(C)=O` [Example 271], the pest or weed control at 121.5 g/ha is above 80% in the assay on Zymoseptoria tritici (setting [1]), above 80% in the assay on Zymoseptoria tritici (setting [2]), above 80% in the assay on Puccinia triticina (setting [3]) and below 0% in the assay on Puccinia triticina (setting [4]). The pest or weed control at 25 ppm in the assay with Phakopsora pachyrhizi (setting [5]) and with Phakopsora pachyrhizi (setting [6]) was below 80% in each case.

With `COc1ccnc(C(=O)N[C@@H](C)C(=O)O[C@@H](C)[C@H](Oc2ccccc2)c2cccc3ccccc23)c1OCOC(C)=O` [Example 262], the pest or weed control at 121.5 g/ha in the assay on Zymoseptoria tritici (setting [1]), with Zymoseptoria tritici (setting [2]), in the assay with Puccinia triticina (setting [3]) and in the assay on Puccinia triticina (setting [4]) was above 80% in each case. Besides, the pest or weed control at 25 ppm was above 80% in the assay on Phakopsora pachyrhizi (setting [5]) and below 0% with Phakopsora pachyrhizi (setting [6]).

Turning to `COc1ccnc(C(=O)N[C@@H](C)C(=O)O[C@@H](C)[C@H](Oc2ccc(C(F)(F)F)cc2)c2ccccc2)c1OCOC(C)=O` [Example 195], the pest or weed control at 121.5 g/ha is above 80% in the assay on Zymoseptoria tritici (setting [1]), above 80% with Zymoseptoria tritici (setting [2]), above 80% in the assay on Puccinia triticina (setting [3]) and below 80% with Puccinia triticina (setting [4]).

Take `COc1ccnc(C(=O)N[C@@H](C)C(=O)O[C@@H](C)[C@H](Oc2cc(F)ccc2F)c2ccccc2)c1OCOC(C)=O` [Example 191]: the pest or weed control at 121.5 g/ha in the assay with Zymoseptoria tritici (setting [1]) was below 0%; in the assay on Zymoseptoria tritici (setting [2]), below 80%; in the assay with Puccinia triticina (setting [3]) it was above 80%; in the assay with Puccinia triticina (setting [4]), above 80%.

Take `COc1ccnc(C(=O)N[C@@H](C)C(=O)O[C@@H](C)[C@H](Oc2ccc(F)cc2)c2ccc(F)cc2)c1OCOC(C)=O` [Example 254]: the pest or weed control at 121.5 g/ha in the assay with Zymoseptoria tritici (setting [1]), in the assay with Zymoseptoria tritici (setting [2]), in the assay with Puccinia triticina (setting [3]) and in the assay with Puccinia triticina (setting [4]) was above 80% each time.

Regarding `COc1ccnc(C(=O)N[C@@H](C)C(=O)O[C@@H](C)[C@H](Oc2ccccc2)c2ccc(F)cc2)c1O` [Example 148], the pest or weed control at 100 ppm in the assay with Zymoseptoria tritici (setting [7]) is below 80%; with Zymoseptoria tritici (setting [8]) it was above 80%; in the assay on Puccinia triticina (setting [9]) it was above 80%; in the assay with Puccinia triticina (setting [10]) it was below 80%.

With `COc1ccnc(C(=O)N[C@@H](C)C(=O)O[C@@H](C)[C@@H](OCC(C)C)c2ccccc2)c1OCOC(C)=O` [Example 226], the pest or weed control at 121.5 g/ha was below 80% in the assay on Zymoseptoria tritici (setting [1]), below 80% in the assay with Zymoseptoria tritici (setting [2]), above 80% in the assay on Puccinia triticina (setting [3]) and above 80% with Puccinia triticina (setting [4]).

As for `COc1ccnc(C(=O)N[C@@H](C)C(=O)O[C@@H](C)[C@H](Oc2ccccc2)c2ccc(-c3ccccc3)cc2)c1O` [Example 144], the pest or weed control at 100 ppm is above 80% with Zymoseptoria tritici (setting [7]), below 80% with Zymoseptoria tritici (setting [8]), above 80% with Puccinia triticina (setting [9]) and below 80% in the assay on Puccinia triticina (setting [10]).

As for `CC[C@H](NC(=O)c1nccc(OC)c1OCOC(C)=O)C(=O)O[C@@H](C)[C@H](Oc1cc(F)cc(Cl)c1)c1ccccc1` [Example 208], the pest or weed control at 121.5 g/ha in the assay with Zymoseptoria tritici (setting [1]) is above 80%; in the assay with Zymoseptoria tritici (setting [2]) it was above 80%; in the assay on Puccinia triticina (setting [3]), above 80%; in the assay with Puccinia triticina (setting [4]) it was below 80%.

Consider `COc1ccnc(C(=O)N[C@@H](C)C(=O)O[C@@H](C)[C@H](Oc2ccccc2)c2ccccc2)c1O` [Example 114], for which the pest or weed control at 100 ppm with Zymoseptoria tritici (setting [7]), with Zymoseptoria tritici (setting [8]), in the assay on Puccinia triticina (setting [9]) and in the assay with Puccinia triticina (setting [10]) was above 80% throughout.

`COc1ccnc(C(=O)N[C@H](C(=O)O[C@@H](C)[C@H](Oc2ccc(C(F)(F)F)cc2)c2ccccc2)C(C)C)c1OCOC(C)=O` [Example 197]: the pest or weed control at 121.5 g/ha in the assay with Zymoseptoria tritici (setting [1]) is above 80%; in the assay with Zymoseptoria tritici (setting [2]), below 0%; in the assay with Puccinia triticina (setting [3]) it was above 80%; in the assay with Puccinia triticina (setting [4]) it was below 80%.

For `CCOc1cc(F)ccc1[C@@H](Oc1ccccc1)[C@H](C)OC(=O)[C@H](C)NC(=O)c1nccc(OC)c1O` [Example 168], the pest or weed control at 100 ppm in the assay on Zymoseptoria tritici (setting [7]), in the assay on Zymoseptoria tritici (setting [8]), in the assay with Puccinia triticina (setting [9]) and with Puccinia triticina (setting [10]) was above 80% each time.

Turning to `COc1ccnc(C(=O)N[C@@H](Cc2ccccc2)C(=O)O[C@@H](C)[C@H](Oc2cccc(F)c2)c2ccccc2)c1OC(C)=O` [Example 190], the pest or weed control at 121.5 g/ha with Zymoseptoria tritici (setting [1]) was below 80%; in the assay with Zymoseptoria tritici (setting [2]) it was below 0%; in the assay on Puccinia triticina (setting [3]), above 80%; in the assay on Puccinia triticina (setting [4]) it was below 80%.

Turning to `COc1ccnc(C(=O)N[C@@H](C)C(=O)O[C@@H](C)[C@@H](Oc2ccc(Cl)cc2Cl)c2ccccc2)c1OCOC(C)=O` [Example 216], the pest or weed control at 121.5 g/ha in the assay with Zymoseptoria tritici (setting [1]) was above 80%; in the assay on Zymoseptoria tritici (setting [2]) it was above 80%; in the assay on Puccinia triticina (setting [3]) it was above 80%; with Puccinia triticina (setting [4]), below 80%.

For the compound `COc1ccnc(C(=O)N[C@@H](C)C(=O)O[C@@H](C)[C@H](Oc2cccc(F)c2)c2cccc(-c3ccccc3)c2)c1O` [Example 133], the pest or weed control at 100 ppm is below 0% with Zymoseptoria tritici (setting [7]), below 0% in the assay on Zymoseptoria tritici (setting [8]), below 80% with Puccinia triticina (setting [9]) and below 0% with Puccinia triticina (setting [10]).

Turning to `COc1ccnc(C(=O)N[C@@H](C)C(=O)O[C@@H](C)[C@H](OCC2CC2)c2cccc(-c3ccccc3)c2)c1OC(C)=O` [Example 222], the pest or weed control at 121.5 g/ha in the assay with Zymoseptoria tritici (setting [1]), with Zymoseptoria tritici (setting [2]), in the assay on Puccinia triticina (setting [3]) and with Puccinia triticina (setting [4]) was above 80% in each case.

In the case of `COc1cc(F)ccc1[C@@H](OCC1CC1)[C@H](C)OC(=O)[C@H](C)NC(=O)c1nccc(OC)c1O` [Example 289], the pest or weed control at 100 ppm in the assay with Zymoseptoria tritici (setting [7]), with Zymoseptoria tritici (setting [8]), in the assay on Puccinia triticina (setting [9]) and with Puccinia triticina (setting [10]) was above 80% in each case.

For the compound `COc1ccnc(C(=O)N[C@@H](C)C(=O)O[C@@H](C)C(Oc2ccccc2)c2nccs2)c1OC(C)=O` (some centres unmarked) [Example 212], the pest or weed control at 121.5 g/ha is below 0% in the assay on Zymoseptoria tritici (setting [1]), below 80% in the assay with Zymoseptoria tritici (setting [2]), below 80% with Puccinia triticina (setting [3]) and above 80% in the assay on Puccinia triticina (setting [4]).

Take `COc1ccnc(C(=O)N[C@@H](C)C(=O)O[C@@H](C)[C@H](Oc2ccccc2)c2ccc(F)cc2OCC(F)F)c1O` [Example 176]: the pest or weed control at 100 ppm in the assay on Zymoseptoria tritici (setting [7]), in the assay with Zymoseptoria tritici (setting [8]), in the assay on Puccinia triticina (setting [9]) and with Puccinia triticina (setting [10]) was above 80% in each case.

For the compound `COc1ccnc(C(=O)N[C@@H](C)C(=O)O[C@@H](C)[C@@H](OCC(C)C)c2ccccc2)c1O` [Example 136], the pest or weed control at 100 ppm was below 80% in the assay on Zymoseptoria tritici (setting [7]), below 0% in the assay with Zymoseptoria tritici (setting [8]), below 0% with Puccinia triticina (setting [9]) and below 80% in the assay on Puccinia triticina (setting [10]).

On to `COc1ccnc(C(=O)N[C@@H](C)C(=O)O[C@@H](C)[C@H](Oc2ccc(C(F)(F)F)cc2)c2ccccc2)c1O` [Example 125], for which the pest or weed control at 100 ppm was below 80% in the assay with Zymoseptoria tritici (setting [7]), below 80% in the assay with Zymoseptoria tritici (setting [8]), below 80% with Puccinia triticina (setting [9]) and below 0% in the assay with Puccinia triticina (setting [10]).

On to `COc1ccnc(C(=O)N[C@@H](C)C(=O)O[C@@H](C)[C@@H](Oc2ccccc2)c2ccccc2)c1OC(C)=O` [Example 217], for which the pest or weed control at 121.5 g/ha was above 80% with Zymoseptoria tritici (setting [1]), above 80% in the assay with Zymoseptoria tritici (setting [2]), above 80% in the assay with Puccinia triticina (setting [3]) and below 80% in the assay on Puccinia triticina (setting [4]).
